Counter-ions that a name gives are not always drawn.
Target: T1, PTPMT1 (Protein Tyrosine Phosphatase localized to the Mitochondrion 1) (Homo sapiens, UniProt Q8WUK0)
T1 construct: human PTPMT1 open reading frame cloned into pGEX-KG, purified using glutathione-conjugated sepharose
T1 sequence (Q8WUK0 1-201): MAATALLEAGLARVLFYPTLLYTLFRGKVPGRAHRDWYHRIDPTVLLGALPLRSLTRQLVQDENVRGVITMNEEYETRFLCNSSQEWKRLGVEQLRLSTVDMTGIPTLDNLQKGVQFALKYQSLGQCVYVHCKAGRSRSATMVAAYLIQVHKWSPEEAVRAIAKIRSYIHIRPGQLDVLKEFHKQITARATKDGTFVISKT
Assay: in vitro phosphatase assay with recombinant enzyme, OMFP substrate, fluorescence readout
Assay type: biochemical

IC50: 2500 nM
Structure (SMILES): CCCCC(CC)CNC(=N)NC(=N)NCCCCCCNC(=N)NC(=N)NCC(CC)CCCC (stereo not shown) [alexidine dihydrochloride]
